Experimental findings from patent publication EP0291007A1, “Rhodanine derivative, process for preparing the same and pharmaceutical composition containing the same” (KAKEN PHARMACEUTICAL CO., LTD., priority 1987, dated 1988) are described below.

For series [1], the system named is rats suffering from diabetes. The series can be described thus: Improving activity of the nerve conduction velocity in diabetic rats (tail nerve, method of Miyoshi). Conditions: 100 mg/kg body weight once daily for 2 weeks, control group 24.5 ± 1.2, normal rat 38.4 ± 2.2. Format: in vivo. How it is done: Rats suffering from diabetes for the test were prepared in the same manner as in Example 13.
From the day after the administration of streptozotocin, each of Compound Nos. 1-11 suspended in a 5 % aqueous solution of gum arabic was administrated to the rats in a dosage of 100 mg/kg body weight once daily for 2 weeks.
As the control groups, a 5 % aqueous solution of gum aratic having no rhodanine derivative was administered (5 mℓ/kg body weight) in the same manner as above to the rats.
Two weeks later, the conduction velocity of nerve of the rats was measured in accordance with the method of Miyoshi [Fukuoka Medical Jounal, 62(7), 588 to 603(1971)]. In this test, the nerves of the rats' tails were used as materials studied.
The rats were anesthetized with pentobarbital (30 to 45 mg/kg body weight, intraperitoneal administration), and then the conduction velocities of nerves were measured in a constant-temperature box having a temperature of 40°C.
The nerve of rat's tail was pricked with needle electrodes at a portion of about 1 cm from the anus (the first stimulation point) and at a portion of about 5 cm in a distal direction from the first stimulation point (the second stimulation point). Further, the segmental muscle of the rat's tail was pricked with a coaxial needle electrode at a portion of about 5 cm in a distol direction from the second stimulation point. The longitudinal nerve trunk of the rat's tail was stimulated at the first stimulation point and the second stimulation point to record action potentials of the provoked muscle.
The conduction velocity of nerve was calculated as follows: [formula]
Also, with respect to the normal rats administered with a 5 % aqueous solution of gum arabic, the conduction velocity of nerve was measured in the same manner as above.

In series [2] the test system is rats suffering from diabetes. In words: Inhibiting activity of the progress of cataract in diabetic rats (lens opacity score by slit lamp). In kind it is in vivo. Conditions: 100 mg/kg body weight orally daily for 5 weeks; average lens score (0-4) of both eyes; control group 1.46 ± 0.12, normal rats 0. How it is done:
Rats suffering from diabetes for the test were produced in the same manner as in Example 13.
From the day after the administration of streptozotocin, each of Compound Nos. 1-11 suspended in a 5 % aqueous solution of gum arabic was administered orally 100 mg/kg body weight daily for 5 weeks to the rats. As the control group, a 5 % aqueous solution of gum arabic having no rhodanine derivative was administered (5 mℓ/kg body weight) to the rats in the same manner as above.
After administering streptozotocin, lenses of the rats were observed by using a slit lump (commercially available from KOWA Co., Ltd. under a trade name "Kowa SL-2") every second or third day for 5 weeks, sufficiently keeping the lenses mydriasis with a mydriatic (commercially available from Santen Pharmaceutical Co., Ltd. under the trade name "MYDRIN-P".
The opaqueness of the lenses was estimated according to the following criteria. Score 0: There was no change in the lenses. […] Score 3: Opacity was observed over the whole of lens' surface and the fundus oculi was not seen as if projected through the lens. Score 4: The nucleus lentis became opaque.
Also, with respect to the normal rats administered with a 5 % aqueous solution of gum arabic, the opaqueness were estimated in the same manner as above.

The test system of series [3] is accumulation of sorbitol in nervous tissues. The series can be described thus: Inhibiting activity of the accumulation of sorbitol in nervous tissues of streptozotocin-diabetic rats. Format: in vivo, SD male rats. As to conditions: single dose 48 h after streptozotocin, sciatic nerve sorbitol 5 hours after administration, mean ± spread. The method, then:
After preliminary breeding SD male rats (6 weeks old) in this laboratory for 5 days, streptozotocin (made by Sigma Chemical Company) was administered intravenously (45 mg/kg body weight) to the rats to destroy β cells of Langerhans' islets in pancreas. Thus, rats suffering from diabetes were obtained.
After 48 hours from the administration of streptozotocin, the rhodanine derivative suspended in a 5 % aqueous solution of gum arabic was administered orally (100 mg/kg body weight or 25 mg/kg body weight) to the rats suffering from diabetes.
On the other hand, a 5 % aqueous solution of gum arabic having no rhodanine derivative was administered orally (5 mℓ/kg body weight) to the rats (a control group).
After 5 hours from the administration, the rats were sacrificed by the decapitation and bled to death. Immidiately, the sciatic nervous tissues of the rats were excised and frozen with dry ice. The excised sciatic nervous tissues were stored at -70°C until the sorbitol amount was measured.
After the wet weights of nervous tissues were measured, the tissues were homogenized in 1.0 mℓ of distilled water by using a homogenizer, to which 0.2 mℓ of a 4.5 % aqueous solution of barium hydroxide and 0.2 mℓ of a 5 % aqueous solution of zinc sulfate were added. The mixture was centrifuged for 10 minutes at 3,000 rpm to remove a precipitate. Ion exchange resins "Dowex 50 W" (Dow Chemical Co.) and "Duolite A-4" (Sumitomo Chemical Company, Limited.) purchased were added in small amounts to the obtained supernatant to desalt, which was recentrifuged to obtain a supernatant. To 0.5 mℓ of the extract of sorbitol were added 1.0 mt of a 50 mM glycine-sodium hydroxide buffer solution (pH 9.4) containing 0.2 mM nicotinamide adenine dinucleotide (NAD) and 50 µℓ of an enzyme solution containing 83 µg of sorbitol dehydrogenase (commercially available from BOEHRINGER MANNHEIM CORPORATION), and the mixture was reacted at room temperature for one hour. The amount of NADH formed by oxidation of sorbitol was measured by using a spectrofluorimeter and a sorbitol concentration in the extracts was measured. From the obtained results, sorbitol concentrations in nervous tissues (n mole/mg wet weight) were calculated.
A difference between the sorbitol content of the normal rat (0.12 ± 0.01 n mole/mg) and that of the rat suffering from diabetes (0.81 ± 0.06 n mole/mg) was defined as an amount of sorbitol accumulated in the tissues due to diabetes (hereinafter referred to as "sorbitol amount due to diabetes"). Also, a difference between the sorbitol content of the rat suffering from diabetes (0.81 ± 0.06 n moles/mg) and the sorbitol content of the rat suffering from diabetes which was administered the rhodanine derivative was defined as a lowering of the amount of sorbitol due to administration of the rhodanine derivative (hereinafter referred to as "lowering of sorbitol").
A lowering percentage (%) was defined as a percentage of the lowering of sorbitol to the sorbitol amount due to diabetes. The lowering percentages of the rhodanine derivatives (Compound Nos. 1-11) are shown in Table 3 (administered 100 mg/kg body weight) and Table 4 (administered 25 mg/kg body weight) with the number of rats suffering from diabetes.

The subject of the next series is male ddY mice. The series can be described thus: Acute toxicity in mice. Format: in vivo. Conditions: oral, up to a dose of 2,000 mg/kg body weight, observed for 2 weeks. The source says:
(§1) The acute toxicity in mice was examined by using the rhodanine derivatives of compound Nos. 1, 2, 5, 7 and 10.

The next series can be described thus: Acute toxicity in mice. In kind it is in vivo. As to conditions: mouse, in vivo; oral, mice observed for 2 weeks; read-out: LD₅₀ (oral).
Text: as §1

Series [4] has as its system accumulation of galactitol in red blood cells. The series can be described thus: Inhibiting activity of the accumulation of galactitol in red blood cells of galactose-fed dogs. Format: in vivo, beagle dogs. As to conditions: 10 mg/kg body weight orally once daily for 3 days; blood 10 hours after galactose 15 g/kg; control group 125 ± 10. The method, then: Each of Compound Nos. 1-11 was administered orally in a dosage of 10 mg/kg body weight once daily for 3 days with a capsule (administration time: 9 a.m. to 9:30 a.m.) to a male or female beagle dogs (body weight: from 8 to 12 kg). As the control group, the dogs were administered with vacant capsules in the same manner as above. Dog foods containing galactose in an amount of 15 g/kg body weight were given to the dogs immediately after the final administration of the capsule. The dogs completely had eaten the dog foods for 5 to 10 minutes. The blood was collected from the cephalic vein of the dog using heparine sodium after 10 hours from the administration of galactose. The collected blood was centrifuged to give red blood cells. The obtained red blood cells were washed twice with a cold physiological saline solution and were hemolysed in distilled water having an equal volume to the red blood cells.
After removing protein from the obtained solution, the resulting solution was treated with ion exchange resins, "Dowex 50 W" and "Duolite A-4", desalted and lyophilized. After subjecting to the pre-treatment of galactitol with trimethyl silyl ether (TMS), the amount of galactitol accumulated in the red blood cells was measured by a gas chromatography.

The structures appear in SMILES notation. Marks after values point to notes of the source that are not given here.

On to `CCC(CC)C1SC(=S)N(CC(=O)O)C1=O` (centres unmarked) [Compound No. 1, 3-Carboxymethyl-5-(1-ethylpropyl)rhodanine], for which the “Conduction velocity of nerve (m/sec)” value in series [1] worked out at 36.2 ± 3.4 m/sec. In series [2], the Opaqueness was 0.98 ± 0.06. For the same molecule, the “Lowering percentage (%)” value is listed as 19.8 ± 3.2 % in series [3] (25 mg/kg body weight orally) and 51.5 ± 4.8*^3% in series [3] (100 mg/kg body weight orally). In addition, the dead mice entry in the series on male ddY mice was “no dead mice were observed”. Further, the LD50 at 336 h in “Acute toxicity in mice” was greater than 2000 mg/kg. For the same molecule, in series [4], the “Amount of galactitol in red blood cells (ng/g hemoglobin)” value (from here on “Amount of galactitol in red blood cells”) is given as 82 ± 6 ng/g hemoglobin.

As to `CC(C)C(C)C1SC(=S)N(CC(=O)O)C1=O` (centres unmarked) [Compound No. 2, 3-Carboxymethyl-5-(1,2-dimethylpropyl)-rhodanine], the “Conduction velocity of nerve (m/sec)” value in series [1] was found to be 36.6 ± 2.7 m/sec. Also, the Opaqueness in series [2] worked out at 0.61 ± 0.07. Besides, the “Lowering percentage (%)” value is on record as 36.5 ± 4.7 % in series [3] (25 mg/kg body weight orally) and 68.2 ± 10.6*^3% in series [3] (100 mg/kg body weight orally). Moreover, the dead mice entry in the series on male ddY mice is listed as “no dead mice were observed”. In addition, the LD50 at 336 h in the series “Acute toxicity in mice” was greater than 2000 mg/kg. In series [4], the “Amount of galactitol in red blood cells” value is recorded as 66 ± 5 ng/g hemoglobin.

In the case of `CCC(CCCl)C1SC(=S)N(CC(=O)O)C1=O` (centres unmarked) [Compound No. 3, 3-Carboxymethyl-5-(1-ethyl-3-chloropropyl)-rhodanine], the “Conduction velocity of nerve (m/sec)” value in series [1] is recorded as 34.2 ± 1.8 m/sec. Further, the Opaqueness in series [2] came out at 0.55 ± 0.06. Moreover, the “Lowering percentage (%)” value in series [3] (25 mg/kg body weight orally) is on record as 34.0 ± 6.2 %; in series [3] (100 mg/kg body weight orally), 62.4 ± 9.4*^3%. Also, in series [4], the “Amount of galactitol in red blood cells” value is recorded as 57 ± 12 ng/g hemoglobin.

`CC(CCCCl)C1SC(=S)N(CC(=O)O)C1=O` (centres unmarked) [Compound No. 4, 3-Carboxymethyl-5-(1-methyl-4-chlorobutyl)-rhodanine]: in series [1], the “Conduction velocity of nerve (m/sec)” value was 37.0 ± 3.5 m/sec. This molecule returned an Opaqueness in series [2] of 0.68 ± 0.09. Moreover, the results for the “Lowering percentage (%)” value in series [3] (25 mg/kg body weight orally) and in series [3] (100 mg/kg body weight orally) were 32.2 ± 4.4 % and 60.1 ± 7.3*^3%, respectively. For the same molecule, in series [4], the “Amount of galactitol in red blood cells” value is on record as 59 ± 6 ng/g hemoglobin.

With `CCCC(CCC)C1SC(=S)N(CC(=O)O)C1=O` (centres unmarked) [Compound No. 6, 3-Carboxymethyl-5-(1-propylbutyl)rhodanine], the “Conduction velocity of nerve (m/sec)” value in series [1] is reported as 33.0 ± 3.1 m/sec. The molecule also came in with an Opaqueness in series [2] of 0.90 ± 0.12. The entries for the “Lowering percentage (%)” value in series [3] (25 mg/kg body weight orally) and in series [3] (100 mg/kg body weight orally) were 16.1 ± 3.2 % and 28.4 ± 7.4*^1%, respectively. The “Amount of galactitol in red blood cells” value in series [4] was 86 ± 12 ng/g hemoglobin.

As to `CC(C)CCC1SC(=S)N(CC(=O)O)C1=O` (centres unmarked) [Compound No. 8, 3-Carboxymethyl-5-(3-methylbutyl)rhodanine], the “Conduction velocity of nerve (m/sec)” value in series [1] is 35.2 ± 1.5 m/sec. In series [2], this molecule had an Opaqueness of 0.89 ± 0.10. The “Lowering percentage (%)” value is recorded as 12.2 ± 1.8 % in series [3] (25 mg/kg body weight orally) and 23.0 ± 6.2*^1% in series [3] (100 mg/kg body weight orally). The “Amount of galactitol in red blood cells” value in series [4] was 72 ± 11 ng/g hemoglobin.

For the molecule `CCC(C)CC1SC(=S)N(CC(=O)O)C1=O` (centres unmarked) [Compound No. 9, 3-Carboxymethyl-5-(2-methylbutyl)rhodanine], the “Conduction velocity of nerve (m/sec)” value in series [1] is 33.6 ± 2.6 m/sec. Also, the Opaqueness in series [2] is listed as 0.72 ± 0.11. In addition, the “Lowering percentage (%)” value in series [3] (25 mg/kg body weight orally) is listed as 19.0 ± 3.5 %; in series [3] (100 mg/kg body weight orally), 49.9 ± 6.9*^2%. Besides, the “Amount of galactitol in red blood cells” value in series [4] stood at 69 ± 10 ng/g hemoglobin.

Regarding `O=C(O)CN1C(=O)C(CC2CCCCC2)SC1=S` (centres unmarked) [Compound No. 11, 3-Carboxymethyl-5-cyclo-hexylmethylrhodanine], in series [1], the “Conduction velocity of nerve (m/sec)” value was found to be 31.8 ± 1.3 m/sec. In addition, in series [2], the Opaqueness is given as 0.90 ± 0.13. Further, the “Lowering percentage (%)” value was 13.0 ± 2.9 % in series [3] (25 mg/kg body weight orally) and 27.7 ± 1.6*^1% in series [3] (100 mg/kg body weight orally). Also, the “Amount of galactitol in red blood cells” value in series [4] is 87 ± 13 ng/g hemoglobin.
